Columns and labels:
[1] = biological target: human CB2 receptor (CNR2) (Homo sapiens (Human), UniProt P34972); test: Radioligand binding assay ([3H]-CP-55,940), membranes of HEK cells expressing human CNR2; details: 2.6 nM [3H]-CP-55,940, HEK cell membranes, 1 h at 30° C.
Experimental: (§1) Radioligand Binding Assay
(§2) The affinity of the compounds of the invention for cannabinoid receptors was determined using recommended amounts of membrane preparations (PerkinElmer) of human embryonic kidney (HEK) cells expressing the human CNR1 or CNR2 receptors in conjunction with 1.5 or 2.6 nM [3H]-CP-55,940 (Perkin Elmer) as radioligand, respectively. Binding was performed in binding buffer (50 mM Tris, 5 mM MgCl2, 2.5 mM EDTA, and 0.5% (wt/vol) fatty acid free BSA, pH 7.4 for CB1 receptor and 50 mM Tris, 5 mM MgCl2, 2.5 mM EGTA, and 0.1% (wt/vol) fatty acid free BSA, pH 7.4 for CB2 receptor) in a total volume of 0.2 mL for 1 h at 30° C. shaking. The reaction was terminated by rapid filtration through microfiltration plates coated with 0.5% polyethylenimine (UniFilter GF/B filter plate; Packard). Bound radioactivity was analyzed for Ki using nonlinear regression analysis (Activity Base, ID Business Solution, Limited), with the Kd values for [^3H]CP55,940 determined from saturation experiments.

[2] = biological target: human CB1 receptor (CNR1) (Homo sapiens (Human), UniProt P21554); test: Radioligand binding assay ([3H]-CP-55,940), membranes of HEK cells expressing human CNR1; details: 1.5 nM [3H]-CP-55,940, HEK cell membranes, 1 h at 30° C.
Experimental: as §1, §2

human CB1 receptor (CNR1), sequence (P21554 whole entry): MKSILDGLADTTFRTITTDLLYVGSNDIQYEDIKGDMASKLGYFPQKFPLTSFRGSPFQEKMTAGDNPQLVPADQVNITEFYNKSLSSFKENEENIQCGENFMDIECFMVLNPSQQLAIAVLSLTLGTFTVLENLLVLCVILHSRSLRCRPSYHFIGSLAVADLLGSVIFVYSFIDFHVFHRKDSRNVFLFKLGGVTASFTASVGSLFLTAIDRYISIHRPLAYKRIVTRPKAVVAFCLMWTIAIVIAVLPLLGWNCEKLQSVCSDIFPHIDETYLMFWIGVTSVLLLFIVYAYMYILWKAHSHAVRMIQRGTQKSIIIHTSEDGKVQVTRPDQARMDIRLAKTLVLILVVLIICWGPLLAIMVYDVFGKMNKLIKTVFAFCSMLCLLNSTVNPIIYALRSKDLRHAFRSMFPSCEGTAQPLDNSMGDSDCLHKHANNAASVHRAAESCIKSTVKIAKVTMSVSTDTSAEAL
human CB2 receptor (CNR2), sequence (P34972 whole entry): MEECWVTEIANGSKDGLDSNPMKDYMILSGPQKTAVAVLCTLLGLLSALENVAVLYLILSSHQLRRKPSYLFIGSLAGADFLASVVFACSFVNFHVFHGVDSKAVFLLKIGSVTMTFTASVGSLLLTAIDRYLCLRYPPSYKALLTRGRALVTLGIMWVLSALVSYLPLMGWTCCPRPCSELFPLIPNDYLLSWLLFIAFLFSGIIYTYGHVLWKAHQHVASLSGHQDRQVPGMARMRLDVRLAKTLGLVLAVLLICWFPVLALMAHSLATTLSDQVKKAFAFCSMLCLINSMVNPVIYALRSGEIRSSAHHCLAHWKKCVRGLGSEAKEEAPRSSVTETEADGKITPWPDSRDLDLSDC

Molecule `CSSC1CCN(c2nc(C(F)(F)c3ccccc3)nc3c2nnn3Cc2nonc2C)C1` (stereo not shown) [Example 18, 5-[Difluoro(phenyl)methyl]-7-[3-(methyldisulfanyl)pyrrolidin-1-yl]-3-[(4-methyl-1,2,5-oxadiazol-3-yl)methyl]-3H-[1,2,3]triazolo[4,5-d]pyrimidine] has a Ki [1] of 1030 nM and a Ki [2] greater than 10000 nM.

Molecule `CC(C)(C)c1nc(N2CCC(F)(F)C2)c2nnn(Cc3ccccc3CS(=O)(=O)F)c2n1` [Example 2, (2-{[5-tert-Butyl-7-(3,3-difluoropyrrolidin-1-yl)-3H-[1,2,3]triazolo[4,5-d]pyrimidin-3-yl]methyl}phenyl)methanesulfonyl fluoride] has a Ki [1] of 11 nM and a Ki [2] of 1960 nM.

For `Cc1nonc1Cn1nnc2c(N3CC[C@H](S)C3)nc(C(C)(C)C)nc21` (single isomer, unassigned) [Example 10], the Ki [1] was 153 nM and the Ki [2] was greater than 10000 nM.

In the case of `CC(C)(C)c1nc(N2CCC(F)(F)C2)c2nnn(Cc3ccccc3CCS(=O)(=O)F)c2n1` [Example 31, 2-[2-[[5-tert-Butyl-7-(3,3-difluoropyrrolidin-1-yl)triazolo[4,5-d]pyrimidin-3-yl]methyl]phenyl]ethanesulfonyl fluoride], the Ki [1] is reported as 27 nM and the Ki [2] is reported as 1360 nM.

Molecule `CC(C)(C)c1nc(N2CCC(F)(F)C2)c2nnn(Cc3ccccc3CCSSc3ccccn3)c2n1` [Example 32, 5-tert-Butyl-7-(3,3-difluoropyrrolidin-1-yl)-3-[[2-[2-(pyridin-2-yldisulfanyl)ethyl]phenyl]methyl]triazolo[4,5-d]pyrimidine] has a Ki [1] of 72 nM and a Ki [2] of 1860 nM.

With “5-tert-butyl-7-(3,3-Difluoropyrrolidin-1-yl)-3-[[2-(pyridin-2-yldisulfanyl)phenyl]methyl]triazolo[4,5-d]pyrimidine [Example 37]” the Ki [1] was 541 nM and the Ki [2] was 2580 nM.

`CC(C)(C)c1nc(N2CCC(F)(F)C2)c2nnn(Cc3ccccc3SSCCO)c2n1` [Example 36, 2-[[2-[[5-tert-Butyl-7-(3,3-difluoropyrrolidin-1-yl)triazolo[4,5-d]pyrimidin-3-yl]methyl]phenyl]disulfanyl]ethanol] gave a Ki [1] of 95 nM and a Ki [2] of 560 nM.

Molecule `CC(C)(C)c1nc(N2CCC(F)(F)C2)c2nnn(Cc3ccccc3CCSSCCN)c2n1` [Example 33, 2-[2-[2-[[5-tert-Butyl-7-(3,3-difluoropyrrolidin-1-yl)triazolo[4,5-d]pyrimidin-3-yl]methyl]phenyl]ethyldisulfanyl]ethanamine] has a Ki [1] of 63 nM and a Ki [2] of 588 nM.
